Tested on: mosquitos
Experiment: Insecticidal effect (knock-down effect) by the open cylinder method
Format: in vivo
Details: for Insecticidal effect 15d (relative effectiveness ratio): fifteenth day; for Insecticidal effect 1d (relative effectiveness ratio): first day; for Insecticidal effect 30d (relative effectiveness ratio): thirtieth day
From the text: An insecticide was impregnated in various kinds of raw materials for preparing insecticide impregnated materials. The resulting insecticide-impregnated materials were housed in their respective insecticide cartridges of Example 1 and Comparative Example 1, followed by mounting each of them on an insecticide transpiration apparatus of the present invention. Subsequently, each of them was subjected to a measurement for estimating the transpiring amount of the chemical and a test for estimating insecticide effects on the first, fifteenth and thirtieth days while using the apparatus for twelve hours a day.
A test of insecticidal effect (knock-down effect) was performed by the open cylinder method according to the following procedures.
Procedures for Estimating the Insecticidal Effect of an Insecticidal Compound
Two plastic cylinders of 20 cm in inside diameter and 43 cm in height are piled up. A cylinder of 20 cm both in inside diameter and height is partitioned vertically with a wire net of 16 mesh (the place where the mosquitos are put in), and is placed thereon. A cylinder of 20 cm in inside diameter and height is further placed thereon. This set consisting of the four cylinders is placed on a stand, and an insecticide transpiration apparatus is placed in the middle of the stand to transpire the insecticidal ingredient in the chemical-impregnated material to be examined. Then about 20 mosquitos to be tested are released in the upper stair of the cylinder set and the number of mosquitos knocked down is observed with the time elapsed.
Furthermore, the insecticidal effect was indicated as a relative effectiveness ratio in which an initial turning-over effect obtained by evaporation from a mosquito-repellent mat containing dl, d-cis, trans-allethrin (Pynamin Forte) on condition that a radiator plate of a heating unit is at a temperature of 160° C. The above test was repeated with various kinds of insecticides and the various amounts thereof, various chemical-impregnated materials and various particle sizes thereof, various free-volumes of the insecticide cartridge, various rotational speeds of the motor, respectively.

[1] = cartridge of Comparative Example 1, relative to Pynamin Forte mat
[2] = cartridge of Example 1, relative to Pynamin Forte mat
[3] = cartridge of Example 1, relative to initial effect of dl, d-cis, trans-allethrin (Pynamin Forte) mat at 160° C.

Structure (SMILES) | Insecticidal effect 15d (relative effectiveness ratio) [1] | Insecticidal effect 1d (relative effectiveness ratio) [1] | Insecticidal effect 30d (relative effectiveness ratio) [1] | Insecticidal effect 15d (relative effectiveness ratio) [2] | Insecticidal effect 1d (relative effectiveness ratio) [3] | Insecticidal effect 30d (relative effectiveness ratio) [2]
CC=CC1C(C(=O)OCc2c(F)c(F)c(COC)c(F)c2F)C1(C)C (stereo not drawn) [Compound G, 4-methoxymethyl-2,3,5,6-tetrafluorobenzyl-2,2-dimethyl-3-(1-propenyl)cyclopropane carboxylate] | 2.8 | 2.9 | 2.8 | 3.4 | 3.4 | 3.4
C#CCc1c(F)c(F)c(COC(=O)C2C(C=CC)C2(C)C)c(F)c1F (stereo not drawn) [Compound I, 4-propargyl-2,3,5,6-tetrafluorobenzyl-3-(1-propenyl)-2,2-dimethylcyclopropane carboxylate] | 2.5 | 2.6 | 2.4 | 2.9 | 3.0 | 2.9
CC(C)=CC1C(C(=O)OCc2c(F)c(F)cc(F)c2F)C1(C)C (stereo not drawn) [Compound A, 2,3,5,6-tetrafluorobenzyl-chrysanthemate] | 3.3 | 3.4 | 3.3 | 3.8 | 3.9 | 3.8
CC(C)=CC1C(C(=O)OCc2c(F)c(F)c(C)c(F)c2F)C1(C)C (stereo not drawn) [Compound C, 4-methyl-2,3,5,6-tetrafluorobenzyl-chrysanthemate] | 1.7 | 1.8 | 1.6 | 2.2 | 2.3 | 2.2
CC1(C)C(C=C(Cl)C(F)(F)F)C1C(=O)OCc1c(F)c(F)c(F)c(F)c1F (stereo not drawn) [Compound H, 2,3,4,5,6-pentafluorobenzyl-2,2-dimethyl-3-(2-chloro-2-trifluoromethylvinyl)cyclopropane carboxylate] | 1.7 | 1.9 | 1.7 | 2.3 | 2.4 | 2.3
Cc1c(F)c(F)c(COC(=O)C2C(C=C(F)F)C2(C)C)c(F)c1F (stereo not drawn) [Compound E, 4-methyl-2,3,5,6-tetrafluorobenzyl-2,2-dimethyl-3-(2,2-difluorovinyl)cyclopropane carboxylate] | 2.3 | 2.4 | 2.3 | 2.8 | 2.9 | 2.8
COCc1c(F)c(F)c(COC(=O)C2C(C=C(C)C)C2(C)C)c(F)c1F (stereo not drawn) [Compound F, 4-methoxymethyl-2,3,5,6-tetrafluorobenzyl-chrysanthemate] | 1.7 | 1.9 | 1.5 | 2.5 | 2.6 | 2.5
CC=CC1C(C(=O)OCc2c(F)c(F)c(C)c(F)c2F)C1(C)C (stereo not drawn) [Compound D, 4-methyl-2,3,5,6-tetrafluorobenzyl-2,2-dimethyl-3-(1-propenyl)cyclopropane carboxylate] | 2.7 | 2.8 | 2.6 | 3.2 | 3.2 | 3.1
C#CCc1c(F)c(F)c(COC(=O)C2C(C)(C)C2(C)C)c(F)c1F [Compound K, 4-propargyl-2,3,5,6-tetrafluorobenzyl-2,2,3,3-tetramethyl cyclopropane carboxylate] | 2.2 | 2.3 | 2.1 | 2.7 | 2.8 | 2.7
CC=CC1C(C(=O)OCc2c(F)c(F)cc(F)c2F)C1(C)C (stereo not drawn) [Compound B, 2,3,5,6-tetrafluorobenzyl-2,2-dimethyl-3-(1-propenyl) cyclopropane carboxylate] | 2.1 | 2.2 | 2.0 | 2.7 | 2.8 | 2.7
COCc1c(F)c(F)c(COC(=O)C2C(C)(C)C2(C)C)c(F)c1F [Compound J, 4-methoxymethyl-2,3,5,6-tetrafluorobenzyl-2,2,3,3-tetramethylcyclopropane carboxylate] | 2.4 | 2.5 | 2.4 | 2.8 | 2.9 | 2.8

Source: patent publication US7459168B2, “Insecticide transpiration apparatus” (Dainihon Jochugiku Co., Ltd., priority 2002, dated 2008)
